For data set [1], the system named is transmission of virus from chronically infected H9 cells to ME180 cervical epithelial cells. The experiment in a line: Topical microbicide assay (p24 ELISA). The data set is classed as cell-based, HIV. The conditions noted are these: qualitative. The procedure: MEI 180 cervical epithelial cells were plated in the interior walls of a 96-well flat bottom microtiter plate at a density of […] cells per well and incubated overnight. Chronically infected H9 cells wee treated with 200 μg/ml mitomycin C in complete medium for one hour, washed extensively and resuspended at 4×10^5 per ml. […] Antiviral compounds and chronically infected cells (2×10^4) were added to each well containing ME180 cells and incubated for 6 hours. Following co-cultivation the monolayer was washed extensively and fresh medium added. Medium was removed and fresh medium added at 24 and 48 hours post-infection to remove dead lymphocytes. On day 6 post-infection, supernatant samples were removed and analyzed for virus content by p24 ELISA.
A general note: An ELISA detects its analyte on a solid surface through an enzyme-linked reagent.

Data set [2] relates to HSV-1. The experiment in a line: In vitro HSV-1 plaque inhibition on fibroblasts. The data set is classed as cell-based. Here is the method:
Laboratory testing was undertaken at the University Of Chicago, Clinical Microbiology Laboratories to determine inhibitory activity in vitro of the medical treatment and composition (medicine). The laboratory testing was conducted by the Associate Director, PhD, and Associate Professor of Pathology. […] It was stated by the pathologist, that they had tested “hundreds” of other compounds and had never seen anything as good as what this compound did. The following are the tests of the medicine that were conducted and results that were obtained at The University of Chicago. For ease of interpreting some of the scientific data and test results, the following definitions apply: • “MEM” pertains to Minimal Essential Medium. This is the culture medium used in laboratories for growing the cells upon which tests were run. • “Fibroblast” is a mesenchyme human cell (a cell found in connective tissue, blood, bone, lymphatics, and cartilage). • “IC50” pertains to the Inhibitory Concentrate. […] 1. Three 24-compartment plates were inoculated with fibroblasts. […] There were four control compartments on each plate containing MEM without drug. 2. The growth media was removed from the compartments and 200 ul of HSV-1 was added to each compartment of the upper half of each plate. HSV-1 was diluted 1:5000 (2.0 ul of stock HSV-1 in 10 mL of MEM). […] Also, 200 ul of HSV-2 was added to each compartment of the lower half of each plate. HSV-2 was diluted 1:2,000 (5.0 ul of stock HSV-2 in 10 mL of MEM). The virus titer was 6×10^5 per mL. 3. The plates were incubated at 37° C. for two hours. 4. The inoculum was removed and one mL of the MEM containing Drugs #1-3 were added to the four compartments. The concentration of the drug compared to the MEM is indicated below. 1. Three plates were used to screen the three drug preparations. […] There were four control compartments on each plate containing MEM without drug. 2. The growth media was removed from the compartments and 200 ul of HSV-1 was added to each compartment of the upper half of each plate. HSV-1 was diluted 1:5000 (2.0 ul of stock HSV-1 in 10 mL of MEM). […] 3. The plates were incubated at 37° C. for four hours. 4. The inoculum was removed and one mL of the MEM containing drugs #1A-3A were added to the four compartments. 1. Four plates were used to screen the four drug preparations. […] There were four control compartments on each plate containing MEM without drug. 2. The growth media was removed from the compartments and 200 ul of HSV-1 was added to each compartment of the upper two rows of each plate. HSV-1 was diluted 1:5000 (2.0 ul of stock HSV-1 in 10 mL of MEM). […] Also, 200 ul of HSV-2 was added to each compartment of the lower half of each plate. HSV-2 was diluted 1:2,000 (5.0 ul of stock HSV-2 in 10 mL of MEM). The virus titer was 6×10^5 per mL. 3. The plates were incubated at 37° C. for four hours. 4. The inoculum was removed and one mL of the MEM containing drugs #1-4 was added to the four compartments.

For data set [3] the following is noted: cited from earlier work.
Data set [4] relates to HSV-2. The experiment in a line: In vitro HSV-2 plaque inhibition on fibroblasts. The data set is classed as cell-based. Here is the method:
Laboratory testing was undertaken at the University Of Chicago, Clinical Microbiology Laboratories to determine inhibitory activity in vitro of the medical treatment and composition (medicine). The laboratory testing was conducted by the Associate Director, PhD, and Associate Professor of Pathology. […] It was stated by the pathologist, that they had tested “hundreds” of other compounds and had never seen anything as good as what this compound did. The following are the tests of the medicine that were conducted and results that were obtained at The University of Chicago. For ease of interpreting some of the scientific data and test results, the following definitions apply: • “MEM” pertains to Minimal Essential Medium. This is the culture medium used in laboratories for growing the cells upon which tests were run. • “Fibroblast” is a mesenchyme human cell (a cell found in connective tissue, blood, bone, lymphatics, and cartilage). • “IC50” pertains to the Inhibitory Concentrate. […] Three 24-compartment plates were inoculated with fibroblasts. […] There were four control compartments on each plate containing MEM without drug. 2. The growth media was removed from the compartments and 200 ul of HSV-1 was added to each compartment of the upper half of each plate. […] Also, 200 ul of HSV-2 was added to each compartment of the lower half of each plate. […] The virus titer was 6×10^5 per mL. 3. The plates were incubated at 37° C. for two hours. 4. The inoculum was removed and one mL of the MEM containing Drugs #1-3 were added to the four compartments. The concentration of the drug compared to the MEM is indicated below. […] Four plates were used to screen the four drug preparations. […] There were four control compartments on each plate containing MEM without drug. 2. The growth media was removed from the compartments and 200 ul of HSV-1 was added to each compartment of the upper two rows of each plate. […] Also, 200 ul of HSV-2 was added to each compartment of the lower half of each plate. […] The virus titer was 6×10^5 per mL. 3. The plates were incubated at 37° C. for four hours. 4. The inoculum was removed and one mL of the MEM containing drugs #1-4 was added to the four compartments.

Values joined by “and” are separate entries in the source; they are usually repeats but may differ in a detail not shown here. Equal entries are not always repeated.

As for dextran, in data set [1], the “activity in topical microbicide assay” value was “expected level of activity”.

Consider Benzalkonium chloride [Drug #1A], for which the plaques result was “toxic” in data set [2] (HSV-1, 1:2); “toxic” in data set [2] (HSV-1, 1:4); “toxic” in data set [2] (HSV-1, 1:8); “toxic” in data set [2] (HSV-1, 1:16); “toxic” in data set [2] (HSV-1, 1:32).

Regarding Dextran sulfate, in data set [1], the “activity in topical microbicide assay” value is “expected level of activity”.

`OCc1ccccc1` [Benzyl alcohol]: in data set [3], the solubility in water is reported as 4 g/100 mL.

Consider Benzalkonium chloride [Drug #1B], for which the plaques result is “toxic” in data set [2] (HSV-1, 1:20); “toxic” in data set [2] (HSV-1, 1:40); “toxic” in data set [2] (HSV-1, 1:80); “toxic” in data set [2] (HSV-1, 1:160); 15?* and 18?* in data set [2] (HSV-1, 1:320); “toxic” in data set [4] (HSV-2, 1:20). Besides, the plaques entry in data set [4] (HSV-2, 1:40) is “toxic”; in data set [4] (HSV-2, 1:80) it was “toxic”; in data set [4] (HSV-2, 1:160), “toxic”; in data set [4] (HSV-2, 1:320) it was 21 and 17. In data set [4] (HSV-2, 1:320), this compound showed an Average plaques of 19.

Values taken from patent publication US9662360B2, “Treatment of herpes, pseudomonas, staph, and hepatitis” (priority 2008, dated 2017).
